Assay: recombinant UMI read abundance after kanamycin selection (control-corrected) (log10(CPM+1)); higher = more efficient recombination; extreme values may be limits of the assay; sequences stand for … in AGTGCAGAGAAAATCGGCCAGTTTTCTCTGCCTGCAGTCCGCATGCCGTGGGACCCCTTGGGTTCTAACCTGTTGCCTAGATTTATGCAGCGGACTGCCTTTCTCCCAAAGTGATAAACCGG…AGGTTGGTTTCACT; site = the 11-nt donor
Summary of the method: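 Under IPTG (0.07 mM) plus kanamycin, or without selection, Escherichia coli carrying a UMI-tagged donor and donor-binding-loop pair library and a target plasmid for the IS621 bridge recombinase were plated in two replicates. Recombinant UMIs were PCR-amplified across the donor–target junction and sequenced. Counts were converted to CPM, averaged over replicates, scaled by control-derived factors and reported as log10(CPM+1).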
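Also: IS621 bridge recombinase in Escherichia coli cells against a fixed T5 target plasmid.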

## GTGATGCCATGGACCGGTTTTCCCGGTAATCCGTATTTGAT (site GTGATGCCTAT)
  recombinant UMI read abundance (log10): 1.41

## GTGATGTCATGGACCGGTTTTCCCGGTAATCCGTATTTGGA (site GTGATGTCTTC)
  recombinant UMI read abundance (log10): 2.57

## GTGCACGCATGGACCGGTTTTCCCGGTAATCCGTATTTGGT (site GTGCAAGCTAC)
  recombinant UMI read abundance (log10): 0.553

## GTGCACGCATGGACCGGTTTTCCCGGTAATCCGTATTTGGT (site GTGCACGCTAC)
  recombinant UMI read abundance (log10): 1.75

## GTGCACGCATGGACCGGTTTTCCCGGTAATCCGTATTTGGT (site GTGCAGGCTAC)
  recombinant UMI read abundance (log10): 0.00611

## GTGCACGCATGGACCGGTTTTCCCGGTAATCCGTATTTGGT (site GTGCATGCTAC)
  recombinant UMI read abundance (log10): 0.0143

## GTGCGAGCATGGACCGGTTTTCCCGGTAATCCGTATTTGCA (site GTACGAGCTTG)
  recombinant UMI read abundance (log10): 2.68

## GTGCGAGCATGGACCGGTTTTCCCGGTAATCCGTATTTGCA (site GTCCGAGCTTG)
  recombinant UMI read abundance (log10): 0.724

## GTGCGAGCATGGACCGGTTTTCCCGGTAATCCGTATTTGCA (site GTGCGAGCTTG)
  recombinant UMI read abundance (log10): 2.81

## GTGCGAGCATGGACCGGTTTTCCCGGTAATCCGTATTTGCA (site GTTCGAGCTTG)
  recombinant UMI read abundance (log10): 1.48

## GTGCGTACATGGACCGGTTTTCCCGGTAATCCGTATTTGCT (site GTGCGTACTAG)
  recombinant UMI read abundance (log10): 2.23

## GTGCGTCCATGGACCGGTTTTCCCGGTAATCCGTATTTGTG (site GTGCGTCCTCA)
  recombinant UMI read abundance (log10): 0.0594

## GTGCTACCATGGACCGGTTTTCCCGGTAATCCGTATTTGGG (site GTGCTACCTCC)
  recombinant UMI read abundance (log10): 0.0107

## GTGGAAGCATGGACCGGTTTTCCCGGTAATCCGTATTTGAA (site GTGGAAGCTTT)
  recombinant UMI read abundance (log10): 2.55

## GTGGAGTCATGGACCGGTTTTCCCGGTAATCCGTATTTGTG (site GTGGAGACTCA)
  recombinant UMI read abundance (log10): 1.34

## GTGGAGTCATGGACCGGTTTTCCCGGTAATCCGTATTTGTG (site GTGGAGCCTCA)
  recombinant UMI read abundance (log10): 0.572

## GTGGAGTCATGGACCGGTTTTCCCGGTAATCCGTATTTGTG (site GTGGAGGCTCA)
  recombinant UMI read abundance (log10): 0.00513

## GTGGAGTCATGGACCGGTTTTCCCGGTAATCCGTATTTGTG (site GTGGAGTCTCA)
  recombinant UMI read abundance (log10): 2.76

## GTGGCAACATGGACCGGTTTTCCCGGTAATCCGTATTTGCG (site GTGGCAACTCG)
  recombinant UMI read abundance (log10): 1.03

## GTGGCAACATGGACCGGTTTTCCCGGTAATCCGTATTTGTA (site GTGGCAACTTA)
  recombinant UMI read abundance (log10): 0.85

## GTGGGCCCATGGACCGGTTTTCCCGGTAATCCGTATTTGTC (site GTGGGCCCTGA)
  recombinant UMI read abundance (log10): 0.429

## GTGGGCGCATGGACCGGTTTTCCCGGTAATCCGTATTTGGG (site GTGGGCGCTCC)
  recombinant UMI read abundance (log10): 0.22

## GTGTACCCATGGACCGGTTTTCCCGGTAATCCGTATTTGGC (site GTGTACCCTGC)
  recombinant UMI read abundance (log10): 0.705

## GTGTACGCATGGACCGGTTTTCCCGGTAATCCGTATTTGTC (site GTGTACGCTGA)
  recombinant UMI read abundance (log10): 2.81

## GTGTTGACATGGACCGGTTTTCCCGGTAATCCGTATTTGTG (site GTGTTGACTCA)
  recombinant UMI read abundance (log10): 1.33

## GTTAAAGCATGGACCGGTTTTCCCGGTAATCCGTATTTGTA (site GTTAAAGCTTA)
  recombinant UMI read abundance (log10): 2.59

## GTTAACGCATGGACCGGTTTTCCCGGTAATCCGTATTTGGA (site GTTAACGCTTC)
  recombinant UMI read abundance (log10): 0.944

## GTTACAACATGGACCGGTTTTCCCGGTAATCCGTATTTGAT (site GTTACAACTAT)
  recombinant UMI read abundance (log10): 0.492

## GTTACGTCATGGACCGGTTTTCCCGGTAATCCGTATTTGTT (site GATACGTCTAA)
  recombinant UMI read abundance (log10): 0.0159

## GTTACGTCATGGACCGGTTTTCCCGGTAATCCGTATTTGTT (site GCTACGTCTAA)
  recombinant UMI read abundance (log10): 0.00335

## GTTACGTCATGGACCGGTTTTCCCGGTAATCCGTATTTGTT (site GGTACGTCTAA)
  recombinant UMI read abundance (log10): 0.00806

## GTTACGTCATGGACCGGTTTTCCCGGTAATCCGTATTTGTT (site GTTACGTCTAA)
  recombinant UMI read abundance (log10): 0.504

## GTTAGAACATGGACCGGTTTTCCCGGTAATCCGTATTTGGC (site ATTAGAACTGC)
  recombinant UMI read abundance (log10): 0

## GTTAGAACATGGACCGGTTTTCCCGGTAATCCGTATTTGGC (site CTTAGAACTGC)
  recombinant UMI read abundance (log10): 0

## GTTAGAACATGGACCGGTTTTCCCGGTAATCCGTATTTGGC (site GATAGAACTGC)
  recombinant UMI read abundance (log10): 0

## GTTAGAACATGGACCGGTTTTCCCGGTAATCCGTATTTGGC (site GCTAGAACTGC)
  recombinant UMI read abundance (log10): 0

## GTTAGAACATGGACCGGTTTTCCCGGTAATCCGTATTTGGC (site GGTAGAACTGC)
  recombinant UMI read abundance (log10): 0

## GTTAGAACATGGACCGGTTTTCCCGGTAATCCGTATTTGGC (site GTAAGAACTGC)
  recombinant UMI read abundance (log10): 0

## GTTAGAACATGGACCGGTTTTCCCGGTAATCCGTATTTGGC (site GTCAGAACTGC)
  recombinant UMI read abundance (log10): 0

## GTTAGAACATGGACCGGTTTTCCCGGTAATCCGTATTTGGC (site GTGAGAACTGC)
  recombinant UMI read abundance (log10): 0

## GTTAGAACATGGACCGGTTTTCCCGGTAATCCGTATTTGGC (site GTTAAAACTGC)
  recombinant UMI read abundance (log10): 0

## GTTAGAACATGGACCGGTTTTCCCGGTAATCCGTATTTGGC (site GTTACAACTGC)
  recombinant UMI read abundance (log10): 0

## GTTAGAACATGGACCGGTTTTCCCGGTAATCCGTATTTGGC (site GTTAGAACTAC)
  recombinant UMI read abundance (log10): 0.00468

## GTTAGAACATGGACCGGTTTTCCCGGTAATCCGTATTTGGC (site GTTAGAACTCC)
  recombinant UMI read abundance (log10): 0.0522

## GTTAGAACATGGACCGGTTTTCCCGGTAATCCGTATTTGGC (site GTTAGAACTGA)
  recombinant UMI read abundance (log10): 0

## GTTAGAACATGGACCGGTTTTCCCGGTAATCCGTATTTGGC (site GTTAGAACTGC)
  recombinant UMI read abundance (log10): 1.59

## GTTAGAACATGGACCGGTTTTCCCGGTAATCCGTATTTGGC (site GTTAGAACTGG)
  recombinant UMI read abundance (log10): 0

## GTTAGAACATGGACCGGTTTTCCCGGTAATCCGTATTTGGC (site GTTAGAACTGT)
  recombinant UMI read abundance (log10): 0

## GTTAGAACATGGACCGGTTTTCCCGGTAATCCGTATTTGGC (site GTTAGAACTTC)
  recombinant UMI read abundance (log10): 0

## GTTAGAACATGGACCGGTTTTCCCGGTAATCCGTATTTGGC (site GTTAGACCTGC)
  recombinant UMI read abundance (log10): 0

## GTTAGAACATGGACCGGTTTTCCCGGTAATCCGTATTTGGC (site GTTAGAGCTGC)
  recombinant UMI read abundance (log10): 0.0184

## GTTAGAACATGGACCGGTTTTCCCGGTAATCCGTATTTGGC (site GTTAGATCTGC)
  recombinant UMI read abundance (log10): 0.83

## GTTAGAACATGGACCGGTTTTCCCGGTAATCCGTATTTGGC (site GTTAGCACTGC)
  recombinant UMI read abundance (log10): 0.506

## GTTAGAACATGGACCGGTTTTCCCGGTAATCCGTATTTGGC (site GTTAGGACTGC)
  recombinant UMI read abundance (log10): 0.0154

## GTTAGAACATGGACCGGTTTTCCCGGTAATCCGTATTTGGC (site GTTAGTACTGC)
  recombinant UMI read abundance (log10): 0

## GTTAGAACATGGACCGGTTTTCCCGGTAATCCGTATTTGGC (site GTTATAACTGC)
  recombinant UMI read abundance (log10): 1.54

## GTTAGAACATGGACCGGTTTTCCCGGTAATCCGTATTTGGC (site GTTCGAACTGC)
  recombinant UMI read abundance (log10): 0

## GTTAGAACATGGACCGGTTTTCCCGGTAATCCGTATTTGGC (site GTTGGAACTGC)
  recombinant UMI read abundance (log10): 0.696

## GTTAGAACATGGACCGGTTTTCCCGGTAATCCGTATTTGGC (site GTTTGAACTGC)
  recombinant UMI read abundance (log10): 0

## GTTAGAACATGGACCGGTTTTCCCGGTAATCCGTATTTGGC (site TTTAGAACTGC)
  recombinant UMI read abundance (log10): 0

## GTTAGAACATGGACCGGTTTTCCCGGTAATCCGTATTTGGT (site GTTAGAACTAC)
  recombinant UMI read abundance (log10): 0.908

## GTTAGAACATGGACCGGTTTTCCCGGTAATCCGTATTTGGT (site GTTAGAACTCC)
  recombinant UMI read abundance (log10): 0.0129

## GTTAGAACATGGACCGGTTTTCCCGGTAATCCGTATTTGGT (site GTTAGAACTGC)
  recombinant UMI read abundance (log10): 0

## GTTAGAACATGGACCGGTTTTCCCGGTAATCCGTATTTGGT (site GTTAGAACTTC)
  recombinant UMI read abundance (log10): 0.0194

## GTTAGACCATGGACCGGTTTTCCCGGTAATCCGTATTTGGA (site GTTAGACCTTC)
  recombinant UMI read abundance (log10): 0.00772

## GTTAGACCATGGACCGGTTTTCCCGGTAATCCGTATTTGGC (site GTTAGAACTGC)
  recombinant UMI read abundance (log10): 0

## GTTAGACCATGGACCGGTTTTCCCGGTAATCCGTATTTGGC (site GTTAGACCTGC)
  recombinant UMI read abundance (log10): 0

## GTTAGACCATGGACCGGTTTTCCCGGTAATCCGTATTTGGC (site GTTAGAGCTGC)
  recombinant UMI read abundance (log10): 0

From the supplement of paper PMC11208160
